Read-outs that look alike come from different tables or passages of the source.
Key:
NMBR [1] = biological target: NMBR (Homo sapiens, UniProt P28336); experiment: [3H]IP production, NMBR agonist/antagonist; format: cell-based; conditions: Peptide #1 (10 nM) + PD 1 μM; NCI-H727 (carcinoid); control 143 ± 21
NMBR [2] = experiment: [3H]IP production, NMBR agonist/antagonist; format: cell-based, human
human BRS-3-receptor [3] = biological target: T1, human BRS-3-receptor (Homo sapiens, UniProt P32247); experiment: [3H]-inositol phosphates; format: cell-based; conditions: for decrease in [3H]IP-production stimulated by MK-5046 / inhibition of [3H]IP-production caused by peptide #1: Bantag-1 100 nM; for decrease in [3H]IP-production stimulated by MK-5046: MK-5046 10 nM; for inhibition of [3H]IP-production caused by peptide #1: peptide #1 10 nM
T1 sequence (P32247 1-399): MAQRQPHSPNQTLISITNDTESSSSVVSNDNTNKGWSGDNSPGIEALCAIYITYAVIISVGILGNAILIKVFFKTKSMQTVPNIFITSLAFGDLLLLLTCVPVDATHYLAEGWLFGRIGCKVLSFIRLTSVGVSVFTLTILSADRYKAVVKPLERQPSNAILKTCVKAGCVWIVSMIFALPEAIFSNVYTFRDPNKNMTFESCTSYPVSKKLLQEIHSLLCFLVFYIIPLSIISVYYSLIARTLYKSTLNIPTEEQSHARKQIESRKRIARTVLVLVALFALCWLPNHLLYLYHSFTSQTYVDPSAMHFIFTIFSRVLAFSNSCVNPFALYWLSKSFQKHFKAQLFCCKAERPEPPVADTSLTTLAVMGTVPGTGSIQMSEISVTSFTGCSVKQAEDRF

human BRS-3-receptor [4] = biological target: T1, human BRS-3-receptor; experiment: Cytosolic Ca2+; format: cell-based
GRPR = format: cell-based, human

Sequence of NMBR (Homo sapiens, UniProt P28336) (P28336 whole entry): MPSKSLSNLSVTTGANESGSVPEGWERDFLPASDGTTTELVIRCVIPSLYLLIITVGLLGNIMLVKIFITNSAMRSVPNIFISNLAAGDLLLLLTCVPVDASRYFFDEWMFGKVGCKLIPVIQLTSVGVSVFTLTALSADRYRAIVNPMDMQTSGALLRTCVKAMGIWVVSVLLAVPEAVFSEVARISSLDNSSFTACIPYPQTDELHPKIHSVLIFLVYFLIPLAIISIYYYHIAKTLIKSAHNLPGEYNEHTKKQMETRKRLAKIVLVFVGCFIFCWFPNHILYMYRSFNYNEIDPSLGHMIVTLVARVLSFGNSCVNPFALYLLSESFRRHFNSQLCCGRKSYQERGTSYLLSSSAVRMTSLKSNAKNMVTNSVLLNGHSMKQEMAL

Compound: C[C@@](Cc1c[nH]c2ccccc12)(NC(=O)Nc1ccc([N+](=O)[O-])cc1)C(=O)NCC1(c2ccccn2)CCCCC1 [PD168368]
- [3H]IP (DPM) (NMBR [1]): 157 ± 48 DPM
- [3H]IP (DPM) (NMBR [2]; Peptide #1 (10 nM) + PD 1 μM, Balb-3T3 BRS-3 transfected, control 2487 ± 185): 15006 ± 769 DPM
- [3H]IP (DPM) (NMBR [2]; Peptide #1 (10 nM) + PD 1 μM, NCI-H69 (SCLC), control 177 ± 27): 471 ± 121 DPM
- [3H]IP (DPM) (NMBR [2]; Peptide #1 (10 nM) + PD 1 μM, NCI-N417 (SCLC), control 660 ± 87): 2176 ± 518 DPM

Compound: Boc-Phe-His-4-amino-5-cyclohexyl-2, 4, 5-trideoxypentonyl-Leu- (3-dimethylamino)benzyl amide-N-methyl ammonium trifluoroacetate [Bantag-1]
- decrease in [3H]IP-production stimulated by MK-5046 (human BRS-3-receptor [3]; BRS-3/Balb-cells): 93%
- decrease in [3H]IP-production stimulated by MK-5046 (human BRS-3-receptor [3]; NCI-H69): 81%
- decrease in [3H]IP-production stimulated by MK-5046 (human BRS-3-receptor [3]; NCI-H727): 75%
- decrease in [3H]IP-production stimulated by MK-5046 (human BRS-3-receptor [3]; NCI-N417): 99%
- inhibition of [3H]IP-production caused by peptide #1 (human BRS-3-receptor [3]; BRS-3/Balb-cells): 82%
- inhibition of [3H]IP-production caused by peptide #1 (human BRS-3-receptor [3]; NCI-H69-cells): 83%
- inhibition of [3H]IP-production caused by peptide #1 (human BRS-3-receptor [3]; NCI-N417-cells): 68%
- [3H]IP (DPM) (human BRS-3-receptor [3]; MK-5046 10 nM + Bantag 100 nM, Balb-3T3 BRS-3 transfected, control 2487 ± 185): 3697 ± 1064 DPM
- [3H]IP (DPM) (human BRS-3-receptor [3]; MK-5046 10 nM + Bantag 100 nM, NCI-H69 (SCLC), control 177 ± 27): 256 ± 56 DPM
- [3H]IP (DPM) (human BRS-3-receptor [3]; MK-5046 10 nM + Bantag 100 nM, NCI-H727 (carcinoid), control 143 ± 21): 215 ± 25 DPM
- [3H]IP (DPM) (human BRS-3-receptor [3]; MK-5046 10 nM + Bantag 100 nM, NCI-N417 (SCLC), control 660 ± 87): 678 ± 82 DPM
- [3H]IP (DPM) (human BRS-3-receptor [3]; Peptide #1 (10 nM) + Bantag 100 nM, NCI-H69 (SCLC), control 177 ± 27): 265 ± 35 DPM
- [3H]IP (DPM) (human BRS-3-receptor [3]; Peptide #1 (10 nM) + Bantag 100 nM, NCI-H727 (carcinoid), control 143 ± 21): 176 ± 27 DPM
- [3H]IP (DPM) (human BRS-3-receptor [3]; Peptide #1 (10 nM) + Bantag 100 nM, NCI-N417 (SCLC), control 660 ± 87): 1125 ± 154 DPM
- inhibition of MK-5046 stimulated increases in cytosolic calcium (human BRS-3-receptor [4]; Bantag-1 1000 nM, two cell lines (NCI-H727, H782)): completely inhibited
- inhibition of MK-5046 stimulation of increases in (Ca2+)i (human BRS-3-receptor [4]; NCI-82, NCI-H460 and NCI-H727 cells): inhibited

Compound: [D-Phe^6]Bombesin-(6–13)-methyl ester
- [3H]IP (DPM) (GRPR; Peptide #1 (10 nM) + ME 1 μM, Balb-3T3 BRS-3 transfected, control 2487 ± 185): 16107 ± 100 DPM
- [3H]IP (DPM) (GRPR; Peptide #1 (10 nM) + ME 1 μM, NCI-N417 (SCLC), control 660 ± 87): 2513 ± 662 DPM

Compound: [D-Tyr^6, β-Ala^11, Phe^13, Nle^14]Bn- (6–14) [Peptide #1]
- [3H]IP (DPM) (human BRS-3-receptor [3]; Peptide #1 10 nM, Balb-3T3 BRS-3 transfected, control 2487 ± 185): 16341 ± 1071 DPM
- [3H]IP (DPM) (human BRS-3-receptor [3]; Peptide #1 10 nM, NCI-H69 (SCLC), control 177 ± 27): 680 ± 73 DPM
- [3H]IP (DPM) (human BRS-3-receptor [3]; Peptide #1 10 nM, NCI-H727 (carcinoid), control 143 ± 21): 235 ± 25 DPM
- [3H]IP (DPM) (human BRS-3-receptor [3]; Peptide #1 10 nM, NCI-N417 (SCLC), control 660 ± 87): 2131 ± 244 DPM

Compound: gastrin-releasing peptide [GRP]
- [3H]IP (DPM) (GRPR; GRP 100 nM, Balb-3T3 BRS-3 transfected, control 2487 ± 185): 2519 ± 744 DPM
- [3H]IP (DPM) (GRPR; GRP 100 nM, NCI-N417 (SCLC), control 660 ± 87): 881 ± 204 DPM
- [3H]IP (DPM) (GRPR; GRP 1 μM, NCI-N417 (SCLC), control 660 ± 87): 724 ± 138 DPM
- PLC activation in 4 cell-lines (NCI-H69, NCI-N417, NCI-H727, BRS-3/Balb) (GRPR; GRP at 10 nM and 100 nM): activated PLC only in NCI-H727-cells

Compound: neuromedin B [NMB]
- [3H]IP (DPM) (NMBR [2]; NMB 100 nM, Balb-3T3 BRS-3 transfected, control 2487 ± 185): 2697 ± 720 DPM
- [3H]IP (DPM) (NMBR [2]; NMB 100 nM, NCI-H69 (SCLC), control 177 ± 27): 186 ± 20 DPM
- [3H]IP (DPM) (NMBR [2]; NMB 100 nM, NCI-N417 (SCLC), control 660 ± 87): 706 ± 132 DPM
- [3H]IP (DPM) (NMBR [2]; NMB 1 μM, Balb-3T3 BRS-3 transfected, control 2487 ± 185): 2652 ± 838 DPM
- [3H]IP (DPM) (NMBR [2]; NMB 1 μM, NCI-H69 (SCLC), control 177 ± 27): 187 ± 37 DPM
- [3H]IP (DPM) (NMBR [2]; NMB 1 μM, NCI-N417 (SCLC), control 660 ± 87): 707 ± 137 DPM
- PLC activation in 4 cell-lines (NCI-H69, NCI-N417, NCI-H727, BRS-3/Balb) (NMBR [2]; NMB at 10 nM and 100 nM): activated PLC only in NCI-H727-cells
